Reference: ChEMBL document CHEMBL1201862, “PubChem BioAssay data set” (2004)
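Exposure lasted 48 hours, with cells grown in 96-well plates and compounds tested at five concentrations. GI50 = concentration required for 50% inhibition of growth.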 Activity calls are given as the source filed them. No stated cut-off is given here; in the data, active = GI50 up to about 1.1 µM and inactive = higher.

How the values were obtained:
Experiment in all cases: growth of human tumour cells (NCI), 48 h
[1] = tested on: SF-268
[2] = tested on: NCI-H460
[3] = tested on: K562
[4] = tested on: A498
[5] = tested on: HT-29
[6] = tested on: KM12
[7] = tested on: SK-MEL-2
[8] = tested on: 786-0
[9] = tested on: UACC-257
[10] = tested on: OVCAR-3
[11] = tested on: M14
[12] = tested on: HCC 2998
[13] = tested on: HCT-116
[14] = tested on: LOX IMVI
[15] = tested on: SF-295
[16] = tested on: SK-MEL-28

Measured: GI50

N#CCCN(c1ccc(/C=N/c2ccccc2Cl)cc1)S(=O)(=O)c1ccccc1
inactive: [1] > 100 µM | [2] > 100 µM | [3] > 100 µM | [4] > 100 µM | [5] > 100 µM | [6] > 100 µM | [7] > 100 µM | [8] > 100 µM | [9] > 100 µM | [10] > 100 µM | [11] > 100 µM | [12] > 100 µM | [13] > 100 µM | [14] > 100 µM | [15] > 100 µM | [16] > 100 µM

N#CC(C(=N/O)/C(=N\O)C(C#N)c1ccccc1)c1ccccc1 (stereo not drawn)
inactive: [1] > 100 µM | [2] > 100 µM | [3] > 100 µM | [4] > 100 µM | [5] > 100 µM | [6] > 100 µM | [7] > 100 µM | [8] > 100 µM | [9] > 100 µM | [10] > 100 µM | [11] > 100 µM | [12] > 100 µM | [13] > 100 µM | [14] 87.3 µM | [15] > 100 µM | [16] > 100 µM

CS(=O)(=O)NNS(=O)(=O)c1ccccc1
inactive: [1] > 100 µM | [2] > 100 µM | [3] > 100 µM | [4] > 100 µM | [5] > 100 µM | [6] > 100 µM | [7] > 100 µM | [8] > 100 µM | [9] > 100 µM | [11] > 100 µM | [12] > 100 µM | [13] > 100 µM | [14] > 100 µM | [15] > 100 µM

COc1ccc2cc3n(c2c1)CCc1cc(OC)c(OC)cc1-3
inactive: [1] > 100 µM | [2] > 100 µM | [3] > 100 µM | [4] 28.4 µM | [5] > 100 µM | [6] > 100 µM | [7] > 100 µM | [8] > 100 µM | [9] 92.3 µM | [12] > 100 µM | [14] > 100 µM | [15] 51.2 µM | [16] > 100 µM

Cc1cc2c(C=O)n[nH]c2c(C#N)c1C
inactive: [1] 31.9 µM | [2] 46.6 µM | [3] > 100 µM | [4] 29.2 µM | [5] 53.6 µM | [6] 34.7 µM | [7] > 100 µM | [8] > 100 µM | [9] 43.5 µM | [10] 48 µM | [11] 35.9 µM | [12] > 100 µM | [13] 30.4 µM | [14] 39.4 µM | [15] 44.1 µM | [16] 48.4 µM

Cc1c2nc3ccccc3sc-2cc(=O)c1C
inactive: [1] 25.6 µM | [2] 12.4 µM | [3] 24.3 µM | [4] > 100 µM | [5] > 77.3 µM | [6] 76.6 µM | [7] 14.4 µM | [8] > 100 µM | [9] 10.3 µM | [10] 35.3 µM | [11] 55.3 µM | [12] > 100 µM | [13] 12.7 µM | [14] 29.8 µM | [15] 61.2 µM

c1ccc2c(OCCSCCCCCCCCCCSCCOc3cccc4ccccc34)cccc2c1
inactive: [1] > 100 µM | [2] > 100 µM | [3] > 100 µM | [4] > 100 µM | [5] > 100 µM | [6] > 100 µM | [7] > 100 µM | [8] > 100 µM | [9] > 100 µM | [10] > 100 µM | [12] > 100 µM | [14] > 100 µM | [15] > 100 µM | [16] > 100 µM

CC#CC(OCC)(OCC)OCC
inactive: [1] > 100 µM | [2] 81.8 µM | [3] > 100 µM | [4] > 100 µM | [5] > 100 µM | [6] > 100 µM | [7] > 100 µM | [8] > 100 µM | [9] > 100 µM | [10] > 100 µM | [11] > 100 µM | [12] > 100 µM | [13] > 100 µM | [14] 18.9 µM | [15] > 100 µM | [16] > 100 µM

[N-]=[N+]=NCC(O)Cn1cnc2c(NC(=O)c3ccccc3)ncnc21 (stereo not drawn)
inactive: [1] > 100 µM | [2] > 100 µM | [3] 79.4 µM | [4] > 100 µM | [5] > 100 µM | [6] > 100 µM | [7] > 100 µM | [8] 41.8 µM | [9] > 100 µM | [11] > 100 µM | [12] > 100 µM | [13] > 100 µM | [14] > 100 µM | [15] > 100 µM | [16] > 100 µM

CCOC(=O)NC1C2CC(=O)OC(O2)C1OC(C)=O (stereo not drawn)
inactive: [1] > 100 µM | [2] > 100 µM | [3] > 100 µM | [4] > 100 µM | [5] > 100 µM | [6] > 100 µM | [7] > 100 µM | [8] > 100 µM | [9] > 100 µM | [10] > 100 µM | [11] > 100 µM | [12] > 100 µM | [13] > 100 µM | [14] > 100 µM | [15] > 100 µM | [16] > 100 µM

Clc1ccc(-c2c(C3=NCCN3)nnn2-c2ccc(Cl)cc2)cc1
inactive: [1] 32.2 µM | [2] 14.8 µM | [3] 18 µM | [4] 17.4 µM | [5] 13.9 µM | [6] 19.8 µM | [7] 13.1 µM | [8] 21.8 µM | [9] 18.2 µM | [10] 48.9 µM | [11] 17.1 µM | [12] 17.1 µM | [13] 15 µM | [14] 39.4 µM | [15] 19.5 µM | [16] 25.1 µM

O=C(CC(=O)c1cccc([N+](=O)[O-])c1)C(=O)Nc1ccccc1
inactive: [1] > 100 µM | [2] > 100 µM | [3] > 100 µM | [4] > 100 µM | [5] > 100 µM | [6] > 100 µM | [7] > 100 µM | [8] > 100 µM | [9] > 100 µM | [10] > 100 µM | [11] > 100 µM | [12] > 100 µM | [13] > 100 µM | [14] > 100 µM | [15] > 100 µM | [16] > 100 µM

O=C1c2ccccc2C(=O)N1C/C=N/NS(=O)(=O)c1ccc(Cl)cc1
inactive: [1] > 100 µM | [2] > 100 µM | [3] > 100 µM | [4] > 100 µM | [5] > 100 µM | [7] > 100 µM | [8] > 100 µM | [9] > 100 µM | [11] > 100 µM | [12] > 100 µM | [13] > 100 µM | [14] > 100 µM | [15] > 100 µM

CCOC(=O)COc1cccc2c1C(=O)CCO2
inactive: [1] > 100 µM | [2] > 100 µM | [3] > 100 µM | [4] > 100 µM | [5] > 100 µM | [6] > 100 µM | [7] > 100 µM | [8] > 100 µM | [9] > 100 µM | [10] > 100 µM | [11] > 100 µM | [12] > 100 µM | [13] > 100 µM | [14] > 100 µM | [15] > 100 µM | [16] > 100 µM

CCCCNS(=O)(=O)c1ccc(-c2ccc3c(c2)-c2ccc(S(=O)(=O)NCCCC)cc2S3(=O)=O)cc1
inactive: [1] 9.48 µM | [2] 10.4 µM | [3] 3.03 µM | [4] 11.4 µM | [5] 19.2 µM | [6] 22.9 µM | [7] 12.9 µM | [8] 11.6 µM | [9] 13.1 µM | [10] 24.9 µM | [11] 17.3 µM | [12] > 100 µM | [13] 14.9 µM | [14] 15 µM | [15] 15 µM | [16] 10 µM

CCN(CC)CCOc1ccc(C(O)(Cc2ccc(OC)cc2)c2ccccc2)cc1 (stereo not drawn)
inactive: [1] 21.5 µM | [2] 22.2 µM | [3] 4.39 µM | [4] 18.1 µM | [5] 3.83 µM | [6] 17.3 µM | [7] 14.9 µM | [8] 17.3 µM | [9] 15.7 µM | [10] 34.1 µM | [11] 14.3 µM | [12] 14 µM | [13] 13.8 µM | [14] 14.3 µM | [15] 17.7 µM | [16] 13.9 µM

O=C(NOC(=O)c1ccc([N+](=O)[O-])cc1)c1ccc(Cl)cc1
inactive: [1] > 100 µM | [2] > 100 µM | [3] 21.6 µM | [4] > 100 µM | [5] > 100 µM | [6] > 100 µM | [7] > 100 µM | [8] 54.6 µM | [9] > 100 µM | [11] > 100 µM | [12] > 100 µM | [13] > 100 µM | [14] 6.87 µM | [15] > 100 µM | [16] > 100 µM

O=C(O)/C(=C\c1ccccc1Cl)S(=O)(=O)c1ccccc1
inactive: [1] > 100 µM | [2] > 100 µM | [3] > 100 µM | [4] > 100 µM | [5] > 100 µM | [6] > 100 µM | [7] > 100 µM | [8] > 100 µM | [9] > 100 µM | [11] > 100 µM | [12] > 100 µM | [13] > 100 µM | [14] > 100 µM | [15] > 100 µM
